Measurements taken from patent US12252508B2, “Ginsenoside and anti-inflammatory composition comprising same” (AMOREPACIFIC CORPORATION, priority 2018, dated 2025).
Entries after “also recorded” stand apart in the source; their conditions may differ.

Experiments:
Type in all cases: cell-based
[1] = tested on: tumor necrosis factor α (TNF-α); test: TNF-α secretion by ELISA in LPS-treated RAW 264.7 macrophages; settings: RAW 264.7, serum-free medium, 1 or 10 μM 2 hours, then 10 ng/mL LPS 6 hours, FIG. 17
Description: (§1) RAW 264.7 macrophages were used as in Test Example 2. A serum-free medium without comprising FBS was used for the measurement of the amount of cytokines. After pretreating the cells for 2 hours with each ginsenoside at 1 or 10 μM under the same condition as in Test Example 1 and then treating with 10 ng/mL LPS for 6 hours, only the medium was recovered and the secretion of pro-inflammatory cytokines, tumor necrosis factor α (TNF-α), interleukin 1β (IL-1β) and IL-6, was measured using an enzyme-linked immunosorbent assay kit (Abcam).

IL-6 [2] = test: IL-6 secretion by ELISA in LPS-treated RAW 264.7 macrophages; settings: RAW 264.7, serum-free medium, 1 or 10 μM 2 hours, then 10 ng/mL LPS 6 hours, FIG. 19
Description: as §1

interleukin 1β (IL-1β) = test: IL-1β secretion by ELISA in LPS-treated RAW 264.7 macrophages; settings: RAW 264.7, serum-free medium, 1 or 10 μM 2 hours, then 10 ng/mL LPS 6 hours, FIG. 18
Description: as §1

IL-1β = IL-1β gene expression by qPCR in LPS-treated RAW 264.7 macrophages; settings: then 10 ng/mL LPS 6 hours
Description: (§2) RAW 264.7 macrophages purchased from ATCC were cultured in Dulbecco's modified Eagle's medium (Sigma) supplemented with 10% fetal bovine serum (FBS; HyClone) and 1% penicillin/streptomycin (Sigma) in a 5% CO2 incubator. After pretreating the RAW 264.7 cells with each of the 7 ginsenosides extracted from ginseng seed (GS #01 to GS #06 and GS #10; 10 μM each) for 2 hours, the cells were further treated with 10 ng/mL lipopolysaccharide (LPS; inflammation-induced group, Sigma) for 6 hours. Then, after extracting RNA using a Trizol™ reagent (Thermo Fisher Scientific), cDNA was synthesized using a RevertAid™ first-strand cDNA synthesis kit (Thermo Fisher Scientific). The expression of inflammation-related genes (IL-1β, IL-6 and iNOS) was observed using a CFX96 real-time quantitative PCR (qPCR) system (Bio-Rad).
(§3) RAW 264.7 macrophages were pretreated with ginsenosides Rg1, Rg3 and Rb1 (purchased from Sigma), which are marker compounds of red ginseng, as comparative examples of the present disclosure or the novel ginsenoside GS #10 (isolated from the ginseng seed extract) as an example of the present disclosure at 1 or 10 μM for 2 hours and then further treated with 10 ng/mL lipopolysaccharide (LPS) for 6 hours to induce inflammation. Then, after extracting RNA and synthesizing cDNA in the same manner as in Test Example 1, the expression of inflammation-related genes was observed by qPCR. […]

[3] = tested on: inflammation-related genes (IL-1β, IL-6 and iNOS); test: Overall anti-inflammatory effect from qPCR of inflammation-related genes (Test Example 2); settings: RAW 264.7; 1 or 10 μM, LPS 10 ng/mL; relative to Rg1; FIGS. 14-16
Description: as §2, §3

IL-6 [4] = test: IL-6 gene expression by qPCR in LPS-treated RAW 264.7 macrophages; settings: then 10 ng/mL LPS 6 hours
Description: as §2, §3

iNOS = iNOS gene expression by qPCR in LPS-treated RAW 264.7 macrophages; settings: then 10 ng/mL LPS 6 hours
Description: as §2, §3

[5] = tested on: nitric oxide (NO) production in RAW264.7 macrophages; test: Nitric oxide (NO) production by Griess reaction in LPS-treated RAW 264.7 macrophages; settings: 1 or 10 μM 1 hour, then 10 ng/mL LPS 1 hour, FIG. 20
Description: RAW 264.7 macrophages were treated with 10 μM L-NAME (NO production inhibitor; control group; Sigma), ginsenosides Rg1, Rg3 and Rb1 (purchased from Sigma), which are marker compounds of red ginseng, as comparative examples of the present disclosure or the novel ginsenoside GS #10 (extracted from ginseng seed) as an example of the present disclosure at 1 or 10 μM for 1 hour, and then treated with 10 ng/mL LPS for 1 hour. The amount of NO produced during 1 hour was measured using the Griess reaction. Briefly, after adding 50 μL of sulfanilamide solution to 50 μL of each ginsenoside sample, the mixture was incubated for 10 minutes at room temperature under protection from light. Then, after adding N-(1-napthyl)ethylenediamine solution (50 μL), the mixture was further incubated for 10 minutes at room temperature under protection from light. The […] of NO was measured at a wavelength of 540 nm using a Tecan Infinite® 200 Pro multiplate reader. Sodium nitrite (NaNO2) was used to create a standard curve.

SH-SY5Y cells = test: Cytotoxicity, cell viability by CCK-8; settings: 0.1, 1, 5, 10, 20 and 50 μM, FIG. 21
Description: After adding 10 μL of CCK-8 reagent to SH-SY5Y cells (Dojindo, MD, USA) on a 96-well plate and maintaining at 37° C. for 2 hours, absorbance was measured at 450 nm.
Cell viability was represented as the percentage (%) of the absolute optical density of each sample with respect to an untreated sample. The concentrations of the novel ginsenoside GS #10 according to an exemplary embodiment of the present disclosure in the medium for culturing the cells were 0.1, 1, 5, 10, 20 and 50 μM.

## CC(C)=CCC[C@](C)(O)[C@H]1CC[C@]2(C)[C@@H]1[C@H](O)C[C@@H]1[C@@]3(C)CC[C@H](O[C@@H]4O[C@H](CO)[C@@H](O)[C@H](O)[C@H]4O[C@@H]4O[C@H](CO)[C@@H](O)[C@H](O)[C@H]4O)C(C)(C)[C@@H]3CC[C@]12C [Rg3, ginsenoside Rg3]
[1]
  secretion of TNF-α: decreased
IL-6 [2]
  secretion of IL-6: decreased
Interleukin 1β (IL-1β)
  secretion of IL-1β: decreased

## CC1(C)C(=O)CC[C@@]2(C)C1[C@@H](O[C@H]1OC(CO)[C@H](O)C(O)C1O[C@H]1OC(CO)[C@H](O)C(O)C1O)C[C@]1(C)C2C[C@@H](O)C2C([C@]3(C)CC[C@H](C(C)(C)O)O3)CC[C@]21C (stereo partly drawn) [Compound 10, (20S,24R)-6-O-β-D-glucopyranosyl(1→2)-β-D-glucopyranoside-dammar-3-one-20,24-epoxy-6a,12b,25-triol]
[1]
  secretion of TNF-α: significant decreased secretion
IL-1β; 10 μM pretreatment 2 hours, compared to Compounds 1-6 at the same concentration, FIG. 11
  expression level of the IL-1β gene: remarkably suppress
IL-1β; 1 or 10 μM for 2 hours, compared to Rg1, Rg3 and Rb1, FIG. 14
  anti-inflammatory effect (IL-1β expression level): remarkably excellent anti-inflammatory effect
[3]
  anti-inflammatory effect superior to that of Rg1: about 10 times
IL-6 [4]; 10 μM pretreatment 2 hours, compared to Compounds 1-6 at the same concentration, FIG. 12
  expression level of the IL-6 gene: remarkably suppress
IL-6 [4]; 1 or 10 μM for 2 hours, compared to Rg1, Rg3 and Rb1, FIG. 15
  anti-inflammatory effect (IL-6 expression level): remarkably excellent anti-inflammatory effect
iNOS; 10 μM pretreatment 2 hours, compared to Compounds 1-6 at the same concentration, FIG. 13
  expression level of the iNOS gene: remarkably suppress
iNOS; 1 or 10 μM for 2 hours, compared to Rg1, Rg3 and Rb1, FIG. 16, listed as GS #10
  anti-inflammatory effect (iNOS expression level): remarkably excellent anti-inflammatory effect; also recorded: decreased greatly
[5]
  NO production-inhibiting ability compared to Rg1, Rg3 and Rb1: remarkably superior
[5]; with increasing dosage
  NO production: decreased
IL-6 [2]
  secretion of IL-6: significant decreased secretion
Interleukin 1β (IL-1β)
  secretion of IL-1β: significant decreased secretion
SH-SY5Y cells
  cytotoxicity (cell viability, % of untreated sample): no cytotoxicity

## CC(C)=CCC[C@](C)(O[C@@H]1O[C@H](CO[C@@H]2O[C@H](CO)[C@@H](O)[C@H](O)[C@H]2O)[C@@H](O)[C@H](O)[C@H]1O)[C@H]1CC[C@]2(C)[C@@H]1[C@H](O)C[C@@H]1[C@@]3(C)CC[C@H](O[C@@H]4O[C@H](CO)[C@@H](O)[C@H](O)[C@H]4O[C@@H]4O[C@H](CO)[C@@H](O)[C@H](O)[C@H]4O)C(C)(C)[C@@H]3CC[C@]12C [Rb1, ginsenoside Rb1]
[1]
  secretion of TNF-α: decreased
IL-6 [2]
  secretion of IL-6: decreased
Interleukin 1β (IL-1β)
  secretion of IL-1β: decreased

## CC(C)=CCC[C@](C)(O[C@@H]1O[C@H](CO)[C@@H](O)[C@H](O)[C@H]1O)[C@H]1CC[C@]2(C)[C@@H]1[C@H](O)C[C@@H]1[C@@]3(C)CC[C@H](O)C(C)(C)[C@@H]3[C@@H](O[C@@H]3O[C@H](CO)[C@@H](O)[C@H](O)[C@H]3O)C[C@]12C [Rg1, ginsenoside Rg1]
[1]
  secretion of TNF-α: decreased
IL-6 [2]
  secretion of IL-6: decreased
Interleukin 1β (IL-1β)
  secretion of IL-1β: decreased
